Where two headings read alike, the source gives them in different places. Ends that are not written are not given here. Peptide text beside a SMILES is read from it.
Experiments:
[1] = biological target: T1, CRF1R (Homo sapiens, UniProt P34998); experiment: CRF1R agonist activity (EC50 and Emax), called comparative CRF binding; format: cell-based
T1 sequence (P34998 24-415): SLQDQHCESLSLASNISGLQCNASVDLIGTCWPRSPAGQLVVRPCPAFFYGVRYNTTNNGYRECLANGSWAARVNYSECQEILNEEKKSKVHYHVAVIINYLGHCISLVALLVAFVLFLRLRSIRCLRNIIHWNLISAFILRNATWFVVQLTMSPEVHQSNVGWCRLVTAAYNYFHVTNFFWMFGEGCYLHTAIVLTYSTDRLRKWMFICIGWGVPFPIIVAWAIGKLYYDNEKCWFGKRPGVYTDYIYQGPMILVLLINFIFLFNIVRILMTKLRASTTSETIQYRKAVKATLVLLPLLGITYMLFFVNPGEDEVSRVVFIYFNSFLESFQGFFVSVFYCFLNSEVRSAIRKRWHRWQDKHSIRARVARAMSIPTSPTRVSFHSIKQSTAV
In short: (§1)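 Functional activity of peptides at each receptor subtype is determined in whole cells by measuring cAMP induction, either directly in lysates or through reporter expression downstream of a cAMP-responsive element, relative to vehicle.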

[2] = biological target: T2, CRF2R (Homo sapiens, UniProt Q13324); experiment: CRF2R agonist activity (EC50 and Emax), called comparative CRF binding; format: cell-based
T2 sequence (Q13324 1-411): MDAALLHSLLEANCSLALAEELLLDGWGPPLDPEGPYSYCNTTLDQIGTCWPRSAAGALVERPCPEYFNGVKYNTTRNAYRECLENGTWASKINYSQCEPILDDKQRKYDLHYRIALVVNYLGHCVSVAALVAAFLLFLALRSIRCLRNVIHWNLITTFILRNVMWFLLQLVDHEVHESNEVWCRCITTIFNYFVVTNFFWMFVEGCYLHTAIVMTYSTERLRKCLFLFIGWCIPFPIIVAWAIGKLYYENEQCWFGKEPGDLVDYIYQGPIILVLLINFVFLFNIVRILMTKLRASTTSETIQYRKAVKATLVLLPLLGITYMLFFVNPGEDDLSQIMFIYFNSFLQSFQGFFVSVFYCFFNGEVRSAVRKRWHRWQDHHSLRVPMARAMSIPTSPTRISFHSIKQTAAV
In short: as §1

Row | Compound | EC50 ([1]; CRF1R, read-out: CRF1R EC50) [nM] | EC50 ([2]; CRF2R, read-out: CRF2R EC50) [nM] | also measured
1 | CC[C@H](C)[C@H](N)C(=O)N[C@H](C(=O)N[C@@H](CC(C)C)C(=O)N[C@@H](CO)C(=O)N[C@@H](CC(C)C)C(=O)N[C@@H](CC(=O)O)C(=O)N[C@H](C(=O)N1CCC[C@H]1C(=O)N[C@H](C(=O)NCC(=O)N[C@@H](CC(C)C)C(=O)N[C@@H](CC(C)C)C(=O)N[C@@H](CCC(N)=O)C(=O)N[C@H](C(=O)N[C@@H](CC(C)C)C(=O)N[C@@H](CC(C)C)C(=O)N[C@@H](CCC(=O)O)C(=O)N[C@@H](CCC(N)=O)C(=O)N[C@@H](C)C(=O)N[C@@H](CCCNC(=N)N)C(=O)N[C@@H](Cc1c[nH]cn1)C(=O)N[C@@H](C)C(=O)N[C@@H](Cc1c[nH]cn1)C(=O)N[C@@H](C)C(=O)N[C@@H](Cc1c[nH]cn1)C(=O)N[C@@H](C)C(=O)N[C@@H](Cc1c[nH]cn1)C(=O)N[C@@H](C)C(=O)N[C@@H](Cc1c[nH]cn1)C(=O)N[C@@H](C)C(=O)N[C@@H](CCC(N)=O)C(=O)N[C@@H](C)C(=O)N[C@@H](Cc1c[nH]cn1)C(=O)N[C@H](C(=O)N[C@@H](CC(C)C)C(=O)N[C@@H](C)C(=O)N[C@@H](Cc1c[nH]cn1)C(=O)N[C@H](C(N)=O)C(C)C)[C@@H](C)CC)[C@@H](C)CC)[C@@H](C)CC)C(C)C)C(C)C [compound 369] (H-IVLSLDVPIGLLQILLEQARHAHAHAHAHAQAHILAHV-NH2) | ≥ 1000 | ≥ 100 | –
2 | CC[C@H](C)[C@H](NC(=O)[C@H](CCC(N)=O)NC(=O)[C@H](C)NC(=O)[C@H](CCSC)NC(=O)[C@H](CC(C)C)NC(=O)[C@H](Cc1c[nH]cn1)NC(=O)[C@H](C)NC(=O)[C@H](CC(N)=O)NC(=O)[C@H](C)NC(=O)[C@H](C)NC(=O)[C@H](C)NC(=O)[C@H](CCC(N)=O)NC(=O)[C@H](C)NC(=O)[C@H](CCCNC(=N)N)NC(=O)[C@H](CC(C)C)NC(=O)[C@H](CC(N)=O)NC(=O)[C@H](CCCCN)NC(=O)[C@H](C)NC(=O)[C@H](CCCCN)NC(=O)[C@H](C)NC(=O)[C@@H](NC(=O)[C@H](CC(N)=O)NC(=O)[C@H](Cc1ccccc1)NC(=O)[C@H](CC(C)C)NC(=O)[C@H](CC(C)C)NC(=O)[C@H](CC(N)=O)NC(=O)[C@H](CCSC)NC(=O)[C@@H](NC(=O)[C@H](CC(N)=O)NC(=O)[C@@H](NC(=O)[C@@H]1CCCN1C(=O)[C@@H](NC(=O)[C@H](CC(=O)O)NC(=O)[C@H](CC(C)C)NC(=O)[C@H](CO)NC(=O)[C@H](CC(C)C)NC(=O)[C@@H](NC(=O)[C@H](Cc1ccccc1)NC(=O)[C@H](CCCCN)NC(=O)[C@@H](N)[C@@H](C)O)[C@@H](C)O)C(C)C)[C@@H](C)O)[C@@H](C)CC)[C@@H](C)CC)C(N)=O [hUroIII, reference compound] (H-TKFTLSLDVPTNIMNLLFNIAKAKNLRAQAAANAHLMAQI-NH2) | – | – | EC50 ([1]; CRF1R EC50): > 1000 nM; EC50 ([2]; CRF2R EC50): > 100 nM
3 | NDDPPISIDLPFQLLRNMIEMARIENEREQAGLNAKYLAEV-NH2 [compound 258] | ≥ 1000 | ≥ 100 | –
4 | NDDPPISIDLPLILLRNMIEMARIENEREQAGLNAKYLAEV-NH2 [compound 269] | ≥ 1000 | ≥ 100 | –
5 | NDDPPISIDLPLLLLRNMIEMARIENEREQAGLNAKYLAEV-NH2 [compound 268] | ≥ 1000 | ≥ 100 | –
6 | NDDPPISIDLPLQLLRNMIEMARIENEREQAGLNAKYLAEV-NH2 [compound 270] | ≥ 1000 | ≥ 100 | –
7 | NDDPPISIDLPQYLLRNMIEMARIENEREQAGLNAKYLAEV-NH2 [compound 265] | ≥ 1000 | ≥ 100 | –
8 | NDDPPISIDLPTYLLRNMIEMARIENEREQAGLNAKYLAEV-NH2 [compound 266] | ≥ 1000 | ≥ 100 | –
9 | NDDPPISIDLPYYLLRNMIEMARIENEREQAGLNAKYLAEV-NH2 [compound 267] | ≥ 1000 | ≥ 100 | –
10 | SEEPPISLDLTFHLLREVLEMARAEQLAQQAHTNARILARV-NH2 [compound 161] | > 100 | > 100 | –
11 | SEEPPISLDVPIGLLQEVLEMARAEQLAQQAHSNRKLMEII-NH2 [compound 162] | > 100 | > 100 | –
12 | SQEIVLSLDVPIGLLREVLEMTKADQLAQQAHSNRKLLDIA-NH2 [compound 7] | – | – | CRF1R (Emax %) ([1]; CRF1R, Emax): (4) %; CRF2R (Emax %) ([2]; CRF2R, Emax): (19) %
13 | SQEPPISLDLPFELLREVLEMTKADQLAQQAHSNRKLLDIA-NH2 [compound 97] | ≥ 100 | ≥ 100 | –
14 | SQEPPISLDLPFGLLREVLEMTKADQLAQQAHSNRKLLDIA-NH2 [compound 103] | ≥ 100 | ≥ 100 | –
15 | SQEPPISLDLPFQLLREVLEMTKADQLAQQAHSNRKLLDIA-NH2 [compound 91] | ≥ 100 | ≥ 100 | –
16 | SQEPPISLDLPFYLLREVLEMTKADQLAQQAHSNRKLLDIA-NH2 [compound 96] | ≥ 100 | ≥ 100 | –

Row | Compound | EC50 ([1]; CRF1R, read-out: CRF1R EC50) [nM] | EC50 ([2]; CRF2R, read-out: CRF2R EC50) [nM] | also measured
17 | SQEPPISLDLPIGLLREVLEMTKADQLAQQAHSNRKLLDIA-NH2 [compound 93] | ≥ 100 | ≥ 100 | –
18 | SQEPPISLDLPIHLLREVLEMTKADQLAQQAHSNRKLLDIA-NH2 [compound 94] | ≥ 100 | ≥ 100 | –
19 | SQEPPISLDLPIQLLREVLEMTKADQLAQQAHSNRKLLDIA-NH2 [compound 100] | ≥ 100 | ≥ 100 | –
20 | SQEPPISLDLPLGLLREVLEMTKADQLAQQAHSNRKLLDIA-NH2 [compound 90] | ≥ 100 | ≥ 100 | –
21 | SQEPPISLDLPLHLLREVLEMTKADQLAQQAHSNRKLLDIA-NH2 [compound 102] | ≥ 100 | ≥ 100 | –
22 | SQEPPISLDLPLQLLREVLEMTKADQLAQQAHSNRKLLDIA-NH2 [compound 95] | ≥ 100 | ≥ 100 | –
23 | SQEPPISLDLPLYLLREVLEMTKADQLAQQAHSNRKLLDIA-NH2 [compound 101] | ≥ 100 | ≥ 100 | –
24 | SQEPPISLDLPTELLREVLEMTKADQLAQQAHSNRKIIDIA-NH2 [compound 92] | ≥ 100 | ≥ 100 | –
25 | SQEPPISLDLPTGLLREVLEMTKADQLAQQAHSNRKLLDIA-NH2 [compound 98] | ≥ 100 | ≥ 100 | –
26 | SQEPPISLDLPTHLLREVLEMTKADQLAQQAHSNRKLLDIA-NH2 [compound 99] | ≥ 100 | ≥ 100 | –
27 | SQEPPISLDLPTQLLREVLEMTKADQLAQQAHSNRKLLDIA-NH2 [compound 105] | ≥ 100 | ≥ 100 | –
28 | SQEPPISLDLPTYLLREVLEMTKADQLAQQAHSNRKLLDIA-NH2 [compound 106] | ≥ 100 | ≥ 100 | –
29 | SQEPPISLDLTFGLLREVLEMTKADQLAQQAHSNRKLLDIA-NH2 [compound 88] | ≥ 100 | ≥ 100 | –
30 | SQEPPISLDLTIGLLREVLEMTKADQLAQQAHSNRKLLDIA-NH2 [compound 86] | ≥ 100 | ≥ 100 | –
31 | SQEPPISLDLTIHLLREVLEMTKADQLAQQAHSNRKLLDIA-NH2 [compound 87] | ≥ 100 | ≥ 100 | –

— patent US7632933B2, “Corticotropin releasing factor 2 receptor agonists” (priority 2002, dated 2009)
